Reference: US20140315975A1, “APOPTOSIS-INDUCING AGENT” (NITTO DENKO CORPORATION, priority 2011, published 2014)
Residues, ends and D or L forms follow the SMILES beside them. *: point of attachment. Cbz = O=C(OCc1ccccc1)*

Assays:
Format in all cases: cell-based
M7609 cells [1] = test: Autophagy-positive cells in GST-π knockdown cells with autophagy inhibitor (LC3 immunofluorescence); details: GST-π KD M7609 cells + 3-MA (FIG. 16)
Protocol: (§1) Transfection of GST-π siRNA was carried out in accordance with the procedure of Example 1 (2), the medium was then replaced with an antibiotic-free medium, and incubation was carried out for 3 hours. Cells were plated on a cover slip placed in a 35 mm plastic tissue culture dish, the autophagy inhibitor 3-methyl adenine (3-MA, SIGMA) was added so as to give 1 or 5 mM, and following this culturing was carried out for a predetermined time.
The cells cultured in (1) were subjected to immunofluorescence staining using anti-LC3 antibody in the same way as for Example 3 (1).

M7609 cells [2] = test: TUNEL staining of GST-π knockdown cells with autophagy inhibitor; details: GST-π siRNA + 1 mM or 5 mM 3-MA
Protocol: as §1
The cells cultured in (1) were subjected to TUNEL staining in the same way as for Example 3 (4).

p-Raf-1 (Ser338) = test: Effect of proteasome inhibitor on Raf-1 expression under GST-π knockdown; details: 5 μM MG132 for 4 hours versus DMSO (FIG. 4)
Protocol: Culturing of M7609 cells and transfection with GST-π siRNA were carried out in accordance with the procedures of Example 1 (1) and (2). On the 2nd day after GST-π siRNA transfection culturing was carried out for 16 hours in a serum-free medium. After treating with 5 μM MG132 for 4 hours, a cell extract was collected. As a control for the MG132 treatment, treatment with 0.05% DMSO was carried out in the same manner. The cell extract thus obtained was subjected to quantitative protein analysis using a Micro BCA Protein Assay Kit (Scramble siRNA-DMSO treated group: 3.36 μg/μL, Scramble siRNA-MG132 treated group: 3.16 μg/μL, GST-π siRNA-DMSO treated group: 3.12 μg/μL, GST-π siRNA-MG132 treated group: 3.16 μg/μL). 20 μg of the cell extract was subjected to SDS-PAGE, and then western blot analysis was carried out in the same way as for Example 1 (3) using an anti-p-Raf-1 (Ser338) antibody and an anti-Raf-1 antibody.

p-EGFR (Tyr1068) = test: Effect of proteasome inhibitor on p-EGFR expression under GST-π knockdown; details: GST-π KD cells, 5 μM MG132 for 2 hours (FIG. 12)
Protocol: Culturing of M7609 cells and transfection with GST-π siRNA were carried out in accordance with the procedures of Example 1 (1) and (2). On the 2nd day after transfection with GST-π siRNA, the cells were cultured in serum-free medium for 16 hours. After treating with 5 μM MG132 for 2 hours, a cell extract was collected. As a control for the MG132 treatment, treatment with 0.05% DMSO was carried out in the same manner. The cell extract thus obtained was subjected to quantitative protein analysis using a Micro BCA Protein Assay Kit (Scramble siRNA-DMSO treated group: 11.98 μg/μL, Scramble siRNA-MG132 treated group: 12.29 μg/μL, GST-π siRNA-DMSO treated group: 8.91 μg/μL, GST-π siRNA-MG132 treated group: 9.24 μg/μL). After 80 μg of the cell extract was subjected to SDS-PAGE, a western blot analysis was carried out using anti-p-EGFR (Tyr1068) antibody and anti-EGFR antibody.

GST-π = test: Western blot analysis of GST-π knockdown; details: M7609 cells, siRNA transfection, western blot (FIG. 1a)
Protocol: On the day before transfection, M7609 cells were plated on a 100 mm plastic tissue culture dish using 10% FBS-containing RPMI-1640 medium containing no antibiotic so as to give 1×10^6 cells/10 mL. 600 pmol of GST-π siRNA (SEQ ID No: 1: […], siRNA ID#2385, Ambion) was added to 1 mL of Opti-MEM I Reduced Serum Medium (GIBCO) and mixed gently. Subsequently, 35 μL of Lipofectamine RNAiMAX (Invitrogen) was diluted in 1 mL of Opti-MEM I Reduced Serum Medium and mixed gently. The diluted GST-π siRNA and the diluted Lipofectamine RNAiMAX were combined and gently mixed, and then incubated at room temperature for 10 min. During this time, the medium was replaced with 10 mL of Opti-MEM I Reduced Serum Medium. After the 10 min. incubation, the complex between GST-π siRNA and Lipofectamine RNAiMAX was added to the cells and incubated at 37° C. under an atmosphere containing 5% CO2. After 5 hours incubation, it was replaced with 10 mL of 10% FBS-containing RPMI-1640 medium containing no antibiotic. […] On the 1st, 2nd, 3rd, and 4th days after transfection with GST-π siRNA, the number of cells was counted, and knockdown of GST-π was examined. Knockdown of GST-π was analyzed by a western blot method as described below.
Western blot analysis of GST-π knockdown was carried out using cells harvested at above-mentioned each point of time after transfection with GST-π siRNA. […] The cell extract thus obtained was subjected to quantitative protein analysis using a Micro BCA Protein Assay Kit (Thermo SCIENTIFIC) (GST-π siRNA transfectant: 4.35 μg/μL, Scramble siRNA transfectant: 4.56 μg/μL). […] A reaction with a chemiluminescent substrate was then carried out at room temperature for 1 min., and then this chemiluminescence was detected using an X-ray film. Washing between operations was carried out three times by shaking for 5 min using PBS-T. Furthermore, after transfection with siRNA, plating on a 60 mm plastic tissue culture dish was carried out to give 1.0×10^5 cells/5 mL, and the total cell count in the dish was measured using a hemocytometer up to the 4th day.

LC3 = test: Autophagy induction by LC3 western blotting; details: M7609 cells, western blot with anti-LC3 antibody (FIG. 8)
Protocol: Induction of autophagy in GST-π knockdown cells was further analyzed by a western blot analysis of LC3. GST-π knockdown cells obtained by the procedure of Example 1 (2) were plated on a cover slip placed in a 35 mm plastic tissue culture dish so as to give 1×10^5 cells/2 mL. After incubating for a predetermined time, a cell extract was collected and subjected to a western blot analysis. A reaction with a transfer membrane was carried out at 4° C. for 16 hours using anti-LC3B antibody (SIGMA) as a primary antibody. Detection of LC3 molecules was carried out using a chemoluminescent reagent after a reaction with HRP-labeled secondary antibody. Whether or not autophagy was induced was evaluated by a shift of LC3 from type I (18 kDa) to type II (16 kDa).

Cn1cnc(N)c2ncnc1-2 [3-MA, 3-methyladenine]
autophagy increased by knockdown of GST-π (proportion of autophagy-positive cells) (M7609 cells [1]): suppressed | apoptosis-positive cells (TUNEL stained images) (M7609 cells [2]; 2nd to 4th day (FIG. 17 versus FIG. 9)): increased markedly | induction of apoptosis (percentage apoptosis over time) (M7609 cells [2]; dose-dependent (FIG. 18)): further induced

CC(C)C[C@@H](C=O)NC(=O)[C@H](CC(C)C)NC(=O)[C@H](CC(C)C)NC(=O)OCc1ccccc1 [MG132] (Cbz-Leu-Leu-Leu-aldehyde)
abundance of phosphorylated Raf protein (p-Raf-1 (S338)) (p-Raf-1 (Ser338); GST-π siRNA transfectant): increased | abundance of phosphorylated Raf protein (p-Raf-1 (S338)) (p-Raf-1 (Ser338); Scramble siRNA transfectant): no change | expression level of p-EGFR (p-EGFR (Tyr1068)): recovered

Scramble siRNA: control Scramble siRNA (SEQ ID No: 2: CGAUUCGCUAGACCGGCUUCAUUGCAG, Hokkaido System Science Co., Ltd.) (chemistry not given here) [reference compound]
expression of GST-π (GST-π): not suppressed | expression of type I and type II LC3 (LC3): low
